Test results reported in PMC9516332 (Frontiers in Oncology, 2022).
Where two headings read alike, the source gives them in different places.

Experiments:
[1] = tested on: AP-1060 (ETV6-NTRK3); assay: Cell viability assay; settings: read-out: IC50 in cell proliferation assay
[2] = tested on: 134 cancer cell lines; assay: Cell viability assay (ATPlite, 72 hours), IC50 on cancer cell line panel

CC#CC(=O)N1CCC[C@H]1c1nc(-c2ccc(C(=O)Nc3ccccn3)cc2)c2c(N)nccn12 [acalabrutinib]
IC50 [1]: > 31600 nM | IC50 ([2]; HEC-6, read-out: IC50 in cell proliferation assay): > 31.6 µM | IC50 ([2]; Homo sapiens, 769-P, read-out: IC50 in cell proliferation assay): > 31.6 µM | IC50 ([2]; Homo sapiens, 786-0, read-out: IC50 in cell proliferation assay): > 31.6 µM | IC50 ([2]; Homo sapiens, A 172, read-out: IC50 in cell proliferation assay): > 31.6 µM | IC50 ([2]; Homo sapiens, A204, read-out: IC50 in cell proliferation assay): > 31.6 µM | IC50 ([2]; Homo sapiens, A498, read-out: IC50 in cell proliferation assay): > 31.6 µM | IC50 ([2]; Homo sapiens, A549, read-out: IC50 in cell proliferation assay): > 31.6 µM | IC50 ([2]; Homo sapiens, A704, read-out: IC50 in cell proliferation assay): > 31.6 µM | IC50 ([2]; Homo sapiens, A-375, read-out: IC50 in cell proliferation assay): > 31.6 µM | IC50 ([2]; Homo sapiens, A-427, read-out: IC50 in cell proliferation assay): > 31.6 µM | IC50 ([2]; Homo sapiens, ACHN, read-out: IC50 in cell proliferation assay): 12.6 µM | IC50 ([2]; Homo sapiens, AN3-CA, read-out: IC50 in cell proliferation assay): > 31.6 µM | IC50 ([2]; Homo sapiens, ASPC1, read-out: IC50 in cell proliferation assay): > 31.6 µM | IC50 ([2]; Homo sapiens, AU565, read-out: IC50 in cell proliferation assay): 0.685 µM | IC50 ([2]; Homo sapiens, BT-20, read-out: IC50 in cell proliferation assay): > 31.6 µM | IC50 ([2]; Homo sapiens, BT-474, read-out: IC50 in cell proliferation assay): 0.594 µM | IC50 ([2]; Homo sapiens, BT-549, read-out: IC50 in cell proliferation assay): > 31.6 µM | IC50 ([2]; Homo sapiens, BXPC-3, read-out: IC50 in cell proliferation assay): > 31.6 µM | IC50 ([2]; Homo sapiens, C-33-A, read-out: IC50 in cell proliferation assay): 2.01 µM | IC50 ([2]; Homo sapiens, CAL-27, read-out: IC50 in cell proliferation assay): > 31.6 µM | IC50 ([2]; Homo sapiens, CCF-STTG1, read-out: IC50 in cell proliferation assay): > 31.6 µM | IC50 ([2]; Homo sapiens, CCRF-CEM, read-out: IC50 in cell proliferation assay): > 31.6 µM | IC50 ([2]; Homo sapiens, COLO 205, read-out: IC50 in cell proliferation assay): > 31.6 µM | IC50 ([2]; Homo sapiens, COLO-829, read-out: IC50 in cell proliferation assay): > 31.6 µM | IC50 ([2]; Homo sapiens, DLD-1, read-out: IC50 in cell proliferation assay): > 31.6 µM | IC50 ([2]; Homo sapiens, DU-145, read-out: IC50 in cell proliferation assay): > 31.6 µM | IC50 ([2]; Homo sapiens, DU-4475, read-out: IC50 in cell proliferation assay): > 31.6 µM | IC50 ([2]; Homo sapiens, Daoy, read-out: IC50 in cell proliferation assay): > 31.6 µM | IC50 ([2]; Homo sapiens, DoTc2-4510, read-out: IC50 in cell proliferation assay): 9.83 µM | IC50 ([2]; Homo sapiens, EOL1, read-out: IC50 in cell proliferation assay): 25.8 µM | IC50 ([2]; Homo sapiens, FaDu, read-out: IC50 in cell proliferation assay): 28.5 µM | IC50 ([2]; Homo sapiens, G-361, read-out: IC50 in cell proliferation assay): > 31.6 µM | IC50 ([2]; Homo sapiens, HCC827, read-out: IC50 in cell proliferation assay): > 31.6 µM | IC50 ([2]; Homo sapiens, HCC4006, read-out: IC50 in cell proliferation assay): 17.4 µM | IC50 ([2]; Homo sapiens, HCT-15, read-out: IC50 in cell proliferation assay): > 31.6 µM | IC50 ([2]; Homo sapiens, HCT-116, read-out: IC50 in cell proliferation assay): > 31.6 µM | IC50 ([2]; Homo sapiens, HEC-1, read-out: IC50 in cell proliferation assay): > 31.6 µM | IC50 ([2]; Homo sapiens, HEC-1B, read-out: IC50 in cell proliferation assay): > 31.6 µM | IC50 ([2]; Homo sapiens, HL-60, read-out: IC50 in cell proliferation assay): > 31.6 µM | IC50 ([2]; Homo sapiens, HT, read-out: IC50 in cell proliferation assay): > 31.6 µM | IC50 ([2]; Homo sapiens, HT-1080, read-out: IC50 in cell proliferation assay): > 31.6 µM | IC50 ([2]; Homo sapiens, Hs746T, read-out: IC50 in cell proliferation assay): 9.68 µM | IC50 ([2]; Homo sapiens, Hs-578T, read-out: IC50 in cell proliferation assay): > 31.6 µM | IC50 ([2]; Homo sapiens, HuTu80, read-out: IC50 in cell proliferation assay): > 31.6 µM | IC50 ([2]; Homo sapiens, J82, read-out: IC50 in cell proliferation assay): > 31.6 µM | IC50 ([2]; Homo sapiens, Jurkat E6.1, read-out: IC50 in cell proliferation assay): 29.6 µM | IC50 ([2]; Homo sapiens, K562, read-out: IC50 in cell proliferation assay): > 31.6 µM | IC50 ([2]; Homo sapiens, KATO III, read-out: IC50 in cell proliferation assay): 31.3 µM | IC50 ([2]; Homo sapiens, KG-1, read-out: IC50 in cell proliferation assay): > 31.6 µM | IC50 ([2]; Homo sapiens, KLE, read-out: IC50 in cell proliferation assay): > 31.6 µM | IC50 ([2]; Homo sapiens, KMS-11, read-out: IC50 in cell proliferation assay): > 31.6 µM | IC50 ([2]; Homo sapiens, KU812, read-out: IC50 in cell proliferation assay): > 31.6 µM | IC50 ([2]; Homo sapiens, Kasumi 1, read-out: IC50 in cell proliferation assay): > 31.6 µM | IC50 ([2]; Homo sapiens, LC-2-ad, read-out: IC50 in cell proliferation assay): 19.6 µM | IC50 ([2]; Homo sapiens, LNCaP-Clone-FGC, read-out: IC50 in cell proliferation assay): > 31.6 µM | IC50 ([2]; Homo sapiens, LS174T, read-out: IC50 in cell proliferation assay): > 31.6 µM | IC50 ([2]; Homo sapiens, LS-411N, read-out: IC50 in cell proliferation assay): > 31.6 µM | IC50 ([2]; Homo sapiens, LoVo, read-out: IC50 in cell proliferation assay): > 31.6 µM | IC50 ([2]; Homo sapiens, MCF7, read-out: IC50 in cell proliferation assay): > 31.6 µM | IC50 ([2]; Homo sapiens, MDA-MB-231, read-out: IC50 in cell proliferation assay): > 31.6 µM | IC50 ([2]; Homo sapiens, MDA-MB-453, read-out: IC50 in cell proliferation assay): > 31.6 µM | IC50 ([2]; Homo sapiens, MDA-MB-468, read-out: IC50 in cell proliferation assay): > 31.6 µM | IC50 ([2]; Homo sapiens, MG-63, read-out: IC50 in cell proliferation assay): > 31.6 µM | IC50 ([2]; Homo sapiens, MIA PaCa-2, read-out: IC50 in cell proliferation assay): > 31.6 µM | IC50 ([2]; Homo sapiens, MKN-45, read-out: IC50 in cell proliferation assay): > 31.6 µM | IC50 ([2]; Homo sapiens, MOLM-13, read-out: IC50 in cell proliferation assay): 9.38 µM | IC50 ([2]; Homo sapiens, MOLT-4, read-out: IC50 in cell proliferation assay): > 31.6 µM | IC50 ([2]; Homo sapiens, MV4-11, read-out: IC50 in cell proliferation assay): > 31.6 µM | IC50 ([2]; Homo sapiens, MeWo, read-out: IC50 in cell proliferation assay): > 31.6 µM | IC50 ([2]; Homo sapiens, NCCIT, read-out: IC50 in cell proliferation assay): > 31.6 µM | IC50 ([2]; Homo sapiens, NCI-H82, read-out: IC50 in cell proliferation assay): > 31.6 µM | IC50 ([2]; Homo sapiens, NCI-H460, read-out: IC50 in cell proliferation assay): > 31.6 µM | IC50 ([2]; Homo sapiens, NCI-H661, read-out: IC50 in cell proliferation assay): 11 µM | IC50 ([2]; Homo sapiens, NCI-H716, read-out: IC50 in cell proliferation assay): > 31.6 µM | IC50 ([2]; Homo sapiens, NCI-H1650, read-out: IC50 in cell proliferation assay): > 31.6 µM | IC50 ([2]; Homo sapiens, NCI-H1975, read-out: IC50 in cell proliferation assay): > 31.6 µM | IC50 ([2]; Homo sapiens, NCI-H2228, read-out: IC50 in cell proliferation assay): > 31.6 µM | IC50 ([2]; Homo sapiens, OVCAR-3, read-out: IC50 in cell proliferation assay): > 31.6 µM | IC50 ([2]; Homo sapiens, PFSK-1, read-out: IC50 in cell proliferation assay): > 31.6 µM | IC50 ([2]; Homo sapiens, RL95-2, read-out: IC50 in cell proliferation assay): > 31.6 µM | IC50 ([2]; Homo sapiens, RPMI-7951, read-out: IC50 in cell proliferation assay): > 31.6 µM | IC50 ([2]; Homo sapiens, RS4-11, read-out: IC50 in cell proliferation assay): > 31.6 µM | IC50 ([2]; Homo sapiens, Rec1, read-out: IC50 in cell proliferation assay): 0.021 µM | IC50 ([2]; Homo sapiens, SHP77, read-out: IC50 in cell proliferation assay): > 31.6 µM | IC50 ([2]; Homo sapiens, SK-BR-3, read-out: IC50 in cell proliferation assay): 0.409 µM | IC50 ([2]; Homo sapiens, SK-N-AS, read-out: IC50 in cell proliferation assay): > 31.6 µM | IC50 ([2]; Homo sapiens, SK-N-FI, read-out: IC50 in cell proliferation assay): > 31.6 µM | IC50 ([2]; Homo sapiens, SK-N-MC, read-out: IC50 in cell proliferation assay): > 31.6 µM | IC50 ([2]; Homo sapiens, SK-N-SH, read-out: IC50 in cell proliferation assay): 9.87 µM | IC50 ([2]; Homo sapiens, SNU-5, read-out: IC50 in cell proliferation assay): > 31.6 µM | IC50 ([2]; Homo sapiens, SNU-16, read-out: IC50 in cell proliferation assay): > 31.6 µM | IC50 ([2]; Homo sapiens, SNU-C2B, read-out: IC50 in cell proliferation assay): > 31.6 µM | IC50 ([2]; Homo sapiens, SU-DHL-1, read-out: IC50 in cell proliferation assay): > 31.6 µM | IC50 ([2]; Homo sapiens, SU-DHL-6, read-out: IC50 in cell proliferation assay): 0.003 µM | IC50 ([2]; Homo sapiens, SUP-T1, read-out: IC50 in cell proliferation assay): > 31.6 µM | IC50 ([2]; Homo sapiens, SW48, read-out: IC50 in cell proliferation assay): 4.43 µM | IC50 ([2]; Homo sapiens, SW480, read-out: IC50 in cell proliferation assay): > 31.6 µM | IC50 ([2]; Homo sapiens, SW626, read-out: IC50 in cell proliferation assay): > 31.6 µM | IC50 ([2]; Homo sapiens, SW780, read-out: IC50 in cell proliferation assay): > 31.6 µM | IC50 ([2]; Homo sapiens, SW837, read-out: IC50 in cell proliferation assay): > 31.6 µM | IC50 ([2]; Homo sapiens, SW872, read-out: IC50 in cell proliferation assay): > 31.6 µM | IC50 ([2]; Homo sapiens, SW900, read-out: IC50 in cell proliferation assay): > 31.6 µM | IC50 ([2]; Homo sapiens, SW948, read-out: IC50 in cell proliferation assay): > 31.6 µM | IC50 ([2]; Homo sapiens, SW982, read-out: IC50 in cell proliferation assay): > 31.6 µM | IC50 ([2]; Homo sapiens, SW-620, read-out: IC50 in cell proliferation assay): > 31.6 µM | IC50 ([2]; Homo sapiens, T98G, read-out: IC50 in cell proliferation assay): > 31.6 µM | IC50 ([2]; Homo sapiens, TCC-SUP, read-out: IC50 in cell proliferation assay): > 31.6 µM | IC50 ([2]; Homo sapiens, THP-1, read-out: IC50 in cell proliferation assay): > 31.6 µM | IC50 ([2]; Homo sapiens, U2OS, read-out: IC50 in cell proliferation assay): > 31.6 µM | IC50 ([2]; Homo sapiens, U-87 MG, read-out: IC50 in cell proliferation assay): > 31.6 µM | IC50 ([2]; Homo sapiens, U-118-MG, read-out: IC50 in cell proliferation assay): > 31.6 µM | IC50 ([2]; Homo sapiens, UMUC3, read-out: IC50 in cell proliferation assay): > 31.6 µM | IC50 ([2]; Hs766T, read-out: IC50 in cell proliferation assay): > 31.6 µM | IC50 ([2]; L-82, read-out: IC50 in cell proliferation assay): > 31.6 µM | IC50 ([2]; Rh30, read-out: IC50 in cell proliferation assay): > 31.6 µM

C=CC(=O)Nc1cc(Nc2nccc(-c3cn(C)c4ccccc34)n2)c(OC)cc1N(C)CCN(C)C [osimertinib]
IC50 [1]: 1940 nM | lower IC50 of the most sensitive cell line compared to the panel average ([2]; 134 cell line panel): around 300 fold
